Results: PubChem BioAssay AID256 (DTP/NCI, 2004)
Where “and” joins values, the source holds several entries; their conditions need not be identical. Identical values can stand only once. Inconclusive results and toxic doses are left out. How the source made its calls: active means survival T/C of 150% or more; inactive means T/C below 125% in these data.

Tested on: CD2F1 mice, L1210 leukemia ip, survival T/C
Assay: NCI In Vivo Anticancer Drug Screen. Data for tumor model L1210 Leukemia (intraperitoneal) in CD2F1 (CDF1) mice
Conditions: higher = longer survival
Outline: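 Activity against a transplanted murine tumor was judged by comparing the compound group with a vehicle group. The outcome in the treated animals was divided by that in the controls.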

[1] = endpoint: mean survival time, dose: 100.0 mg/kg/injection, schedule: Q04DX003 (ip), vehicle: saline
[2] = endpoint: mean survival time, dose: 200.0 mg/kg/injection, schedule: Q04DX003 (ip), vehicle: saline
[3] = endpoint: mean survival time, dose: 400.0 mg/kg/injection, schedule: Q04DX003 (ip), vehicle: saline
[4] = endpoint: mean survival time, dose: 100.0 mg/kg/injection, schedule: Q01DX009 (ip), vehicle: saline with Tween-80
[5] = endpoint: mean survival time, dose: 200.0 mg/kg/injection, schedule: Q01DX009 (ip), vehicle: saline with Tween-80
[6] = endpoint: mean survival time, dose: 400.0 mg/kg/injection, schedule: Q01DX009 (ip), vehicle: saline with Tween-80
[7] = endpoint: mean survival time, dose: 100.0 mg/kg/injection, schedule: Q04DX003 (ip), vehicle: saline with Tween-80
[8] = endpoint: mean survival time, dose: 200.0 mg/kg/injection, schedule: Q04DX003 (ip), vehicle: saline with Tween-80
[9] = endpoint: mean survival time, dose: 400.0 mg/kg/injection, schedule: Q04DX003 (ip), vehicle: saline with Tween-80
[10] = endpoint: mean survival time, dose: 100.0 mg/kg/injection, schedule: Q01DX005 (ip), vehicle: distilled water + Tween-80
[11] = endpoint: mean survival time, dose: 200.0 mg/kg/injection, schedule: Q01DX005 (ip), vehicle: distilled water + Tween-80
[12] = endpoint: mean survival time, dose: 12.5 mg/kg/injection, schedule: Q01DX009 (ip), vehicle: saline with Tween-80
[13] = endpoint: mean survival time, dose: 25.0 mg/kg/injection, schedule: Q01DX009 (ip), vehicle: saline with Tween-80
[14] = endpoint: mean survival time, dose: 50.0 mg/kg/injection, schedule: Q01DX009 (ip), vehicle: saline with Tween-80

Measured: T/C

COc1ccc2c(c1C)CN1CCc3cc4c(cc3C1=C2)OCO4
inactive: endpoint: mean survival time, dose: 75.0 mg/kg/injection, schedule: Q01DX001 (ip), vehicle: other 94 % of control | endpoint: mean survival time, dose: 150.0 mg/kg/injection, schedule: Q01DX001 (ip), vehicle: other 88 % of control | endpoint: mean survival time, dose: 300.0 mg/kg/injection, schedule: Q01DX001 (ip), vehicle: other 88 % of control

O=C1C=C(S(=O)(=O)O)c2ccccc2C1=O
inactive: [1] 105 % of control | [2] 103 % of control | [3] 108 % of control

NS(=O)(=O)c1ccc(NC(=S)NC(=O)c2cccc3ccccc23)cc1
inactive: [4] 93 % of control | [5] 93 % of control | [6] 93 % of control

CC(C)(CCC(=O)O)c1ccc(O)cc1
inactive: [1] 101 % of control | [2] 103 % of control | [3] 103 % of control

CCOC(=O)Nc1c(C)noc1NC(C)=O
inactive: [4] 95 % of control | [7] 94 % of control | [5] 95 % of control | [8] 94 % of control | [6] 104 % of control | [9] 94 % of control

CCCCCCCCCSc1nc2ccccc2s1
inactive: endpoint: mean survival time, dose: 100.0 mg/kg/injection, schedule: Q04DX002 (ip), vehicle: saline with Tween-80 87 % of control | endpoint: mean survival time, dose: 200.0 mg/kg/injection, schedule: Q04DX002 (ip), vehicle: saline with Tween-80 97 % of control | endpoint: mean survival time, dose: 400.0 mg/kg/injection, schedule: Q04DX002 (ip), vehicle: saline with Tween-80 93 % of control

Cc1cn([C@@H]2C[C@H](CO)[C@@H](O)C2)c(=O)[nH]c1=O
inactive: endpoint: mean survival time, dose: 133.0 mg/kg/injection, schedule: Q01DX009 (ip), vehicle: saline 118 % of control | endpoint: mean survival time, dose: 200.0 mg/kg/injection, schedule: Q01DX009 (ip), vehicle: saline 121 % of control | endpoint: mean survival time, dose: 450.0 mg/kg/injection, schedule: Q01DX009 (ip), vehicle: saline 106 % of control

O=C(OCC1OC(n2nc(SCc3ccccc3)c(=S)[nH]c2=O)C(OC(=O)c2ccccc2)C1OC(=O)c1ccccc1)c1ccccc1 (configuration not stated)
inactive: endpoint: mean survival time, dose: 12.5 mg/kg/injection, schedule: Q01DX005 (ip), vehicle: distilled water + Tween-80 101 % of control | endpoint: mean survival time, dose: 25.0 mg/kg/injection, schedule: Q01DX005 (ip), vehicle: distilled water + Tween-80 95 % of control | endpoint: mean survival time, dose: 50.0 mg/kg/injection, schedule: Q01DX005 (ip), vehicle: distilled water + Tween-80 102 % of control | [10] 93 % of control | [11] 95 % of control

O=C(CNC(=O)NCc1ccco1)N/N=C/c1cc(Br)ccc1O
inactive: [12] 94 % of control | [13] 94 % of control | [14] 96 % of control | [5] 100 % of control

C#CC12CCCCN1CCC2 (configuration not stated)
inactive: endpoint: mean survival time, dose: 100.0 mg/kg/injection, schedule: Q01DX001 (ip), vehicle: saline 93 % of control | endpoint: mean survival time, dose: 200.0 mg/kg/injection, schedule: Q01DX001 (ip), vehicle: saline 97 % of control

CCC[CH2][Sn](=[S])[CH2]CCC
inactive: endpoint: mean survival time, dose: 0.39 mg/kg/injection, schedule: Q01DX009 (ip), vehicle: other 102 % of control | endpoint: mean survival time, dose: 0.78 mg/kg/injection, schedule: Q01DX009 (ip), vehicle: other 100 % of control | endpoint: mean survival time, dose: 1.56 mg/kg/injection, schedule: Q01DX009 (ip), vehicle: other 107 % of control | endpoint: mean survival time, dose: 6.25 mg/kg/injection, schedule: Q04DX003 (ip), vehicle: other 103 % of control | endpoint: mean survival time, dose: 12.5 mg/kg/injection, schedule: Q04DX003 (ip), vehicle: other 103 % of control

CNc1ccn(C2OC(CO)C(O)C2O)c(=O)n1 (configuration not stated)
inactive: [10] 107 % of control | [11] 104 % of control | endpoint: mean survival time, dose: 400.0 mg/kg/injection, schedule: Q01DX005 (ip), vehicle: distilled water + Tween-80 107 % of control

Cc1cc(Nc2ccc3c(c2)OCO3)c2cc3c(cc2n1)OCO3
inactive: endpoint: median survival time, dose: 25.0 mg/kg/injection, schedule: Q01DX009 (ip), vehicle: Klucel (hydroxypropylcellulose) (HPC) 105 % of control | endpoint: median survival time, dose: 50.0 mg/kg/injection, schedule: Q01DX009 (ip), vehicle: Klucel (hydroxypropylcellulose) (HPC) 121 % of control | endpoint: median survival time, dose: 100.0 mg/kg/injection, schedule: Q01DX009 (ip), vehicle: Klucel (hydroxypropylcellulose) (HPC) 94 % of control

Cc1ccc(N2CC=C(c3ccccc3)OP2(=O)N(CCCl)CCCl)cc1 (configuration not stated)
inactive: endpoint: mean survival time, dose: 31.25 mg/kg/injection, schedule: Q01DX001 (ip), vehicle: saline 100 % of control | endpoint: mean survival time, dose: 62.5 mg/kg/injection, schedule: Q01DX001 (ip), vehicle: saline 102 % of control | endpoint: mean survival time, dose: 125.0 mg/kg/injection, schedule: Q01DX001 (ip), vehicle: saline 100 % of control | endpoint: mean survival time, dose: 250.0 mg/kg/injection, schedule: Q01DX001 (ip), vehicle: saline 100 % of control | endpoint: mean survival time, dose: 500.0 mg/kg/injection, schedule: Q01DX001 (ip), vehicle: saline 100 % of control

OC(Cc1cc(CC(O)(C(F)(F)F)C(F)(F)F)ncn1)(C(F)(F)F)C(F)(F)F
inactive: [7] 97 % of control | [8] 93 % of control | [9] 91 % of control

Cc1sc(N)c(C#N)c1C
inactive: endpoint: mean survival time, dose: 100.0 mg/kg/injection, schedule: Q01DX009 (ip), vehicle: saline sonified 102 % of control | endpoint: mean survival time, dose: 200.0 mg/kg/injection, schedule: Q01DX009 (ip), vehicle: saline sonified 102 % of control | endpoint: mean survival time, dose: 400.0 mg/kg/injection, schedule: Q01DX009 (ip), vehicle: saline sonified 103 % of control

O=c1c(F)cn(-c2ccco2)c(=O)n1-c1ccco1
inactive: [8] 98 % of control | [9] 102 % of control

[Cl][Pt+2][Cl].[NH-]c1ccc(C(=O)c2ccccc2)cc1[NH-]
inactive: endpoint: mean survival time, dose: 2.5 mg/kg/injection, schedule: Q01DX009 (ip), vehicle: saline with Tween-80 105 % of control | endpoint: mean survival time, dose: 5.0 mg/kg/injection, schedule: Q01DX009 (ip), vehicle: saline with Tween-80 105 % of control | endpoint: mean survival time, dose: 10.0 mg/kg/injection, schedule: Q01DX009 (ip), vehicle: saline with Tween-80 106 % of control | endpoint: mean survival time, dose: 20.0 mg/kg/injection, schedule: Q01DX009 (ip), vehicle: saline with Tween-80 100 % of control and 106 % of control | endpoint: mean survival time, dose: 40.0 mg/kg/injection, schedule: Q01DX009 (ip), vehicle: saline with Tween-80 102 % of control and 105 % of control | endpoint: mean survival time, dose: 80.0 mg/kg/injection, schedule: Q01DX009 (ip), vehicle: saline with Tween-80 101 % of control | endpoint: mean survival time, dose: 160.0 mg/kg/injection, schedule: Q01DX009 (ip), vehicle: saline with Tween-80 100 % of control | endpoint: mean survival time, dose: 320.0 mg/kg/injection, schedule: Q01DX009 (ip), vehicle: saline with Tween-80 100 % of control

O=c1cn[nH]c2c(Cl)cccc12
inactive: endpoint: mean survival time, dose: 100.0 mg/kg/injection, schedule: Q01DX001 (ip), vehicle: carboxymethylcellulose (CMC) 106 % of control | endpoint: mean survival time, dose: 200.0 mg/kg/injection, schedule: Q01DX001 (ip), vehicle: carboxymethylcellulose (CMC) 95 % of control

C=C(C)CNC1=C(C)C(=O)C2=C(C1=O)[C@@H](COC(N)=O)[C@]1(O)[C@H]3[C@@H](CN21)N3C (some centres not stated)
inactive: endpoint: mean survival time, dose: 1.5 mg/kg/injection, schedule: Q01DX001 (ip), vehicle: water 97 % of control | endpoint: mean survival time, dose: 3.0 mg/kg/injection, schedule: Q01DX001 (ip), vehicle: water 97 % of control | endpoint: mean survival time, dose: 6.0 mg/kg/injection, schedule: Q01DX001 (ip), vehicle: water 103 % of control | endpoint: mean survival time, dose: 12.0 mg/kg/injection, schedule: Q01DX001 (ip), vehicle: water 98 % of control | endpoint: mean survival time, dose: 24.0 mg/kg/injection, schedule: Q01DX001 (ip), vehicle: water 106 % of control
active: endpoint: mean survival time, dose: 100.0 mg/kg/injection, schedule: Q01DX001 (ip), vehicle: distilled water + Tween-80 156 % of control

COc1ccc(F)cc1NC(=O)OC(C)C
inactive: [4] 92 % of control | [5] 96 % of control | [6] 96 % of control

Cc1ccc(NC(=O)c2cccc(C(=O)Nc3ccc(C)cc3C)c2)c(C)c1
inactive: [12] 94 % of control | [13] 90 % of control | [14] 89 % of control

CCC/C(C)=N/Nc1ccc([N+](=O)[O-])cc1
inactive: [4] 94 % of control | [7] 95 % of control | [5] 100 % of control | [8] 97 % of control | [6] 94 % of control | [9] 93 % of control

Clc1ccc2c(c1)[N-]c1ccccc1S2.Clc1ccc2c(c1)[N-]c1ccccc1S2.[Cl][Pt+2][Cl]
inactive: endpoint: mean survival time, dose: 3.8 mg/kg/injection, schedule: Q04DX003 (ip), vehicle: saline with Tween-80 102 % of control | endpoint: mean survival time, dose: 7.5 mg/kg/injection, schedule: Q04DX003 (ip), vehicle: saline with Tween-80 102 % of control | endpoint: mean survival time, dose: 15.0 mg/kg/injection, schedule: Q04DX003 (ip), vehicle: saline with Tween-80 90 % of control | endpoint: mean survival time, dose: 30.0 mg/kg/injection, schedule: Q04DX003 (ip), vehicle: saline with Tween-80 94 % of control | endpoint: mean survival time, dose: 60.0 mg/kg/injection, schedule: Q04DX003 (ip), vehicle: saline with Tween-80 90 % of control
